Measurements from ChEMBL document CHEMBL2203102, “Crucial Role of 3-Bromoethyl in Removing the Estrogenic Activity of 17β-HSD1 Inhibitor 16β-(m-Carbamoylbenzyl)estradiol” (ACS Med Chem Lett, 2011).

Tests used:
[1] = system: MCF7; assay: Estrogenic activity in estrogen-starved estrogen sensitive human MCF7 cells assessed as stimulation of cell proliferation at 0.1 to 1 uM after 7 days by CellTiter96 assay; format: ADME, cell-based; conditions: mcf7, 168 h
[2] = target: T1, 17-beta-hydroxysteroid dehydrogenase type 1 (Homo sapiens) (UniProt P14061); assay: Inhibition of 17beta-HSD1 in human T47D cells assessed as decrease in transformation of [14C]estrone to [14C]-estradiol at 0.1 uM after 24 hrs by thin layer chromatography; format: cell-based
T1 sequence (whole entry): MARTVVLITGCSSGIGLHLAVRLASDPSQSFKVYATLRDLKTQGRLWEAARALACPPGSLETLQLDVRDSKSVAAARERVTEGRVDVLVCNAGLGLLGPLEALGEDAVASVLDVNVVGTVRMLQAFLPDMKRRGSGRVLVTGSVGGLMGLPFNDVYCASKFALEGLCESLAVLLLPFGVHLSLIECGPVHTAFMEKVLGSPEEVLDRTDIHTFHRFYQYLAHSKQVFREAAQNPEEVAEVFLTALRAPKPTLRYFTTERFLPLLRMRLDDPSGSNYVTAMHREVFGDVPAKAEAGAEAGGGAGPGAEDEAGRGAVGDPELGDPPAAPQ

[3] = target: T1, 17-beta-hydroxysteroid dehydrogenase type 1 (Homo sapiens); assay: Inhibition of 17beta-HSD1 in human T47D cells assessed as decrease in transformation of [14C]estrone to [14C]-estradiol at 0.01 uM after 24 hrs by thin layer chromatography; format: cell-based

SMILES | inhibition [2] | inhibition [3] | Activity [1]
C[C@]12CC[C@@H]3c4ccc(CCBr)cc4CC[C@H]3[C@@H]1C[C@H](Cc1cccc(C(N)=O)c1)[C@@H]2O | 49% | 23% | Non-toxic
C[C@]12CC[C@@H]3c4ccc(O)cc4CC[C@H]3[C@@H]1C[C@H](Cc1cccc(C(N)=O)c1)[C@@H]2O | 66% | 35% | 
C[C@]12CC[C@@H]3c4ccc(CO)cc4CC[C@H]3[C@@H]1C[C@H](Cc1cccc(C(N)=O)c1)[C@@H]2O |  | 14% | 

Continued, in another order:

inhibition [2] | inhibition [3] | SMILES | Activity [1]
17% | 7% | C[C@]12CC[C@@H]3c4ccc(CCO)cc4CC[C@H]3[C@@H]1C[C@H](Cc1cccc(C(N)=O)c1)[C@@H]2O | 
36% | 20% | C[C@]12CC[C@@H]3c4ccc(CBr)cc4CC[C@H]3[C@@H]1C[C@H](Cc1cccc(C(N)=O)c1)[C@@H]2O | 
